Results reported in patent publication US20210145806A1, “Methods of Treating Brain Cancer and Related Diagnostic Methods” (Emory University, priority 2019, published 2021).
“Also recorded” adds a separate entry of the source. Like-named read-outs stand apart in the source and are kept apart here.

How the values were obtained:
[1] = tested on: SmoA1 murine SHH-activated MB organotypic slice culture; assay: Murine MB organotypic slice culture (OSC), cell death by cleaved caspase 3 staining; conditions: 24 h treatment; for cell death (CC3 staining), result in words: relative to vehicle control; for concentration giving significant increase in cell death (CC3 standardized to DAPI): compared to control
[2] = tested on: Group 3-like D556 MB cells; assay: Proliferation of Group 3-like MB cells
[3] = tested on: MB tumor stem-like cells (nestin-positive) in SmoA1 OSCs; assay: SmoA1 OSC, CC3 and nestin co-staining (death of tumor stem-like cells); format: cell-based, mouse
Experimental: DAPI=nuclear stain, DMSO=vehicle. Treatment of human MB cells and SmoA1 OSCs with WP1066 in combination with fisetin further enhances the inhibition of cell proliferation in vitro induction of tumor cell death diffusely ex vivo, but synergistically kills the tumor stem-like cell population specifically.
Given that STA 3 and YB-1 expression colocalized to the cancer stem cell-like cells of the perivascular niche environment, experiments were performed to determine whether combined treatment with these inhibitors, fisetin and WPHH66, leads: to increased tumor cell and/or tumor stem cell like cell death. The effect of combination treatment was evaluated in the in vitro proliferation and colony formation assays. […] Next, experiments were performed to determine whether this effect was more pronounced in the stem cell compartment, where YB-1 and STAT3 are most highly expressed. SmoA1 MB ex vivo brain slices were treated with WP1066, fisetin, or combined treatment thereof. The slices were immunostained for the tumor stem-like cell marker nestin and the cell death marker CC3 to quantify the amount of cell death in the tumor stem-like cells.

[4] = tested on: patient-derived non-WNT/SHH MB OSC; assay: Patient-derived MB OSC, cell death by CC3 staining; format: cell-based, human; conditions: relative to vehicle controls
Experimental: Ex vivo, cultures can be used to evaluate drug effects on murine MB tumor cells in their microenvironment. Experiments were performed to determine whether OSC could be used as a “precision medicine” technique in medulloblastoma, e.g., whether biopsy sample from either a newly diagnosed or relapsed medulloblastoma patient could be directly obtained in the operating room, transferred to the lab, and OSCs generated and tested per the protocol, with readout of the efficacy of potential treatments within 3 days. After obtaining fresh tumor tissue from a newly diagnosed patient with a cerebellar tumor, an OSC assay using this patient-derived medulloblastoma specimen was performed. Four tumor slices were treated with vehicle (DMSO or PBS) and 6 tumor slices were treated with WP1066, fisetin, and cisplatin as positive control. […] Therefore this assay can be used at the time of diagnosis, indicating the feasibility of OSC for use in a personalized medicine based testing approach (FIG. 5C) in pediatric brain tumors. Later the neuropathology report confirmed isochromosome 17q in the specimen without MYC or MYCN amplification consistent with a non-WNT/SHH MB.

[5] = Homo sapiens, read-out: IC50, inhibition of proliferation, D556

Row | SMILES | cell death (CC3 staining), result in words [1] | concentration giving significant increase in cell death (CC3 standardized to DAPI) [1] | IC50 [2, 5] | percentage of CC3/nestin-positive cells (dead nestin-positive cells) [3] | cell death (CC3 staining), result in words [4] | cell death (CC3 staining), result in words ([4]; listed as Fisetin) | IC50 ([2]; read-out: IC50, inhibition of proliferation, D556)
1 | Nc1nc(=S)c2[nH]cnc2[nH]1 [6-thioguinine] | minimal increase in cell death |  |  |  |  |  | 
2 | O=c1c(O)c(-c2ccc(O)c(O)c2)oc2cc(O)ccc12 [fisetin, 2-(3,4-dihydroxyphenyl)-3,7-dihydroxy-4H-chromen-4-one] | induces marked tumor cell death; also recorded: dose-dependent increase in cell death | > 4 µM | 3600 nM | 1.6% | Increase in cell death | induced cell death | 
3 | CS(=O)(=O)OCCCCOS(C)(=O)=O [Busulfan] | minimal increase in cell death |  |  |  |  |  | 
4 | N.N.[Cl][Pt][Cl] [cisplatin] |  | 2 µM |  |  | Increase in cell death |  | 
5 | CC(NC(=O)C(C#N)=Cc1cccc(Br)n1)c1ccccc1 (stereo not shown) [WP1066, 3-(6-bromopyridin-2-yl)-2-cyano-N-(1-phenylethyl)acrylamide] | significantly increased cell death; also recorded: induces marked tumor cell death; also recorded: dose-dependent increase in cell death | greater than 1.5 μM | 1500 nM | 1.4% | induced cell death; also recorded: Increase in cell death |  | 1200 nM
